Experiments:
[1] = system: U937 cells; experiment: H2O2 induced corticosteroid insensitivity in U937 cells (TNF-α induced IL-8, ELISA); type: cell-based; details: H2O2 treated U937 macrophages; addition of 1 μM Compound A; FIG. 1B
Experimental: U937 cells were maintained in RPMI-1640 with 15 mM glutamine. 6×10^6 cells were taken in a T-25 flask with 12 ml of fresh medium and treated with 1 μM of Compound A and incubated at 37° C. and 5% CO2 for 30 min.
H2O2 was added at a final concentration of 200 μM to the above cells and incubated for 2 h.
Cells were pelleted and resuspended in serum free media and seeded on to a 96-well plate at 0.15×10^6 cells per well in 100 μl.
50 μl of 3× dexamethasone at desired concentrations was added and incubated for 45 min
50 μl of 4× concentration of TNF-α was added such that the final concentration was 10 ng/ml, to induce IL-8 and incubated for 18 h.
Supernatant was collected and IL-8 was estimated by ELISA.
IL-8 strips were plated with fresh or thawed supernatants and incubated at room temperature for 2 h or overnight at 4° C.
Contents were discarded and strips were washed with 200 μl of wash buffer per well for 15 s for a total of 5 times.
Strips were blotted dry and 100 μl per well of 1× detection antibody was added and incubated at room temperature for 1 h.
Strips were blotted dry and 100 μl per well of 1× Avidin-HRP antibody was added and incubated at room temperature for 30 min.
Contents were discarded and the strips were washed with 200 μl per well of wash buffer for 15 s for a total of 5 times. […]
Absorbance was read on a plate reader at A450 nm and A570 nm.

[2] = system: mononuclear cells isolated from peripheral blood; experiment: LPS-induced IL-1β, IL-6 and GM-CSF release in mononuclear cells isolated from healthy and asthmatic patients; type: cell-based, human; details: single agent
Experimental: Mononuclear cells were isolated from peripheral blood of healthy volunteers, and asthmatic patients. Briefly, PBMC were isolated from peripheral venous blood by standard laboratory procedures. Peripheral venous blood was mixed with dextran 500 at 3% (in 0.9% saline) in a proportion of 2:1. This mixture was incubated at room temperature for 30 min until sedimentation of erythrocytes. The upper phase was carefully collected and layered on Ficoll-Paque Histopaque 1077 density gradient in a proportion of 3:1. (PBMC) layer was isolated and quantified.
For the single agent study, isolated mononuclear cells were incubated with Compound A, or vehicle for 30 minutes before incubation with or without LPS for 6 hours in standard cell culture conditions (37° C. and 5% CO2). For the combination experiments, the same procedure was followed except that cells were incubated with Compound A (1 μM) in combination with fluticasone (0.1 nM). Supernatants were collected to measure IL-1β, IL-6, and GM-CSF. Data was analysed using Graphpad Prism.

[3] = asthmatic patients, LPS stimulus 6 hours

With `Cc1ccccc1C(=O)Nc1ccc(-n2nc(C(F)(F)F)cc2C2CC2)nc1` [Compound A, N-{6-[5-cyclopropyl-3-(trifluoromethyl)-1H-pyrazol-1-yl]pyridin-3-yl}-2-methyl benzamide] as the compound, how does the “reduction in IC50 of dexamethasone for IL-8 release” value [1] read?
Its value is 3 fold.

What about the “percentage maximum effect (% Emax), GM-CSF release” value [2, 3] of the same compound?
The value was 80±16.4%.

And the “percentage maximum effect (% Emax), IL1β release” value [2, 3]?
The value was 68.9±23.7%.

And the “percentage maximum effect (% Emax), IL6 release” value [2, 3]?
Its value is 52.5±30.3%.

What about the “% Emax for IL1β compared with asthmatic cells” value ([2]; healthy donors, LPS stimulus) of the same compound?
The value was “higher % Emax”.
